The test system of this assay is MV-4-11 cells. The experiment in a line: Gene expression microarray analysis (Affymetrix PrimeView) and GSEA. Type of assay: cell-based, human. More on the design: RFU PODN (11730768_x_at) / Fold change /veh PODN (11730768_x_at) / RFU LINC00158 (11744669_a_at) / Fold change /veh LINC00158 (11744669_a_at) / RFU DUSP10 (11751237_a_at) / Fold change /veh DUSP10 (11751237_a_at) / RFU ID3 (11757404_x_at) / Fold change /veh ID3 (11757404_x_at) / RFU PLEKHG5 (11737974_s_at) / Fold change /veh PLEKHG5 (11737974_s_at) / RFU LRRC4B (11730491_at) / Fold change /veh LRRC4B (11730491_at) / RFU GIMAP4 (11747438_a_at) / Fold change /veh GIMAP4 (11747438_a_at) / RFU KRT8 (11758183_x_at) / Fold change /veh KRT8 (11758183_x_at) / RFU CNN1 (11734310_a_at) / Fold change /veh CNN1 (11734310_a_at) / RFU VPS37D (11726825_at) / Fold change /veh VPS37D (11726825_at) / RFU C10orf10 (11716522_x_at) / Fold change /veh C10orf10 (11716522_x_at) / RFU KIR2DL2 /// KIR2DL4 /// KIR2DL5A /// KIR2DL5B /// KIR2DS1 /// KIR2DS2 /// KIR2DS3 /// KIR2DS4 /// KIR3DL3 /// KIR3DL3 /// KIR3DS1 (11738374_at) / Fold change /veh KIR2DL2 /// KIR2DL4 /// KIR2DL5A /// KIR2DL5B /// KIR2DS1 /// KIR2DS2 /// KIR2DS3 /// KIR2DS4 /// KIR3DL3 /// KIR3DL3 /// KIR3DS1 (11738374_at) / RFU C1QL1 (11718748_at) / Fold change /veh C1QL1 (11718748_at) / RFU TMPRSS4 (11747572_a_at) / Fold change /veh TMPRSS4 (11747572_a_at) / RFU HAMP (11756126_x_at) / Fold change /veh HAMP (11756126_x_at) / RFU RNFT2 (11725882_a_at) / Fold change /veh RNFT2 (11725882_a_at) / RFU NR4A2 (11747474_a_at) / Fold change /veh NR4A2 (11747474_a_at) / RFU ABCC12 (11746883_a_at) / Fold change /veh ABCC12 (11746883_a_at) / RFU TMEM136 (11760407_x_at) / Fold change /veh TMEM136 (11760407_x_at) / RFU CLDN22 /// WWC2 (11732394_at) / Fold change /veh CLDN22 /// WWC2 (11732394_at) / RFU HLA-DPB1 (11760878_x_at) / Fold change /veh HLA-DPB1 (11760878_x_at) / RFU SPINT1 (11716480_a_at) / Fold change /veh SPINT1 (11716480_a_at) / RFU GAP43 (11754022_s_at) / Fold change /veh GAP43 (11754022_s_at) / RFU A4GNT (11735810_at) / Fold change /veh A4GNT (11735810_at) / RFU PRB3 (11715151_x_at) / Fold change /veh PRB3 (11715151_x_at) / RFU TUBB4B (11761932_at) / Fold change /veh TUBB4B (11761932_at) / RFU CAPN14 (11732068_a_at) / Fold change /veh CAPN14 (11732068_a_at) / RFU TMCC2 (11721928_a_at) / Fold change /veh TMCC2 (11721928_a_at) / RFU IRGQ (11745062_a_at) / Fold change /veh IRGQ (11745062_a_at) / RFU FAM174B (11720279_a_at) / Fold change /veh FAM174B (11720279_a_at) / RFU TMPRSS4 (11748680_a_at) / Fold change /veh TMPRSS4 (11748680_a_at) / RFU FAM212B (11763350_a_at) / Fold change /veh FAM212B (11763350_a_at) / RFU PLEKHG5 (11743358_a_at) / Fold change /veh PLEKHG5 (11743358_a_at) / RFU ZSCAN30 (11745921_a_at) / Fold change /veh ZSCAN30 (11745921_a_at) / RFU CMKLR1 (11741424_a_at) / Fold change /veh CMKLR1 (11741424_a_at) / RFU LOC101060620 /// MAPK8IP1 (11723275_at) / Fold change /veh LOC101060620 /// MAPK8IP1 (11723275_at) / RFU SPTSSB (11747773_x_at) / Fold change /veh SPTSSB (11747773_x_at) / RFU PRSS12 (11739890_at) / Fold change /veh PRSS12 (11739890_at) / RFU BIN1 (11741810_x_at) / Fold change /veh BIN1 (11741810_x_at) / RFU WNT11 (11732464_a_at) / Fold change /veh WNT11 (11732464_a_at) / RFU C10orf10 (11716521_a_at) / Fold change /veh C10orf10 (11716521_a_at) / RFU C5orf56 (11738089_at) / Fold change /veh C5orf56 (11738089_at) / RFU CYB561 (11721691_x_at) / Fold change /veh CYB561 (11721691_x_at) / RFU ANKRD19P (11752326_a_at) / Fold change /veh ANKRD19P (11752326_a_at) / RFU OR2T12 /// OR2T33 /// OR2T8 (11738714_s_at) / Fold change /veh OR2T12 /// OR2T33 /// OR2T8 (11738714_s_at) / RFU VCAN (11748164_a_at) / Fold change /veh VCAN (11748164_a_at) / RFU JSRP1 (11732532_at) / Fold change /veh JSRP1 (11732532_at) / RFU KRTAP10-11 (11738290_x_at) / Fold change /veh KRTAP10-11 (11738290_x_at) / RFU MYO3A (11730013_a_at) / Fold change /veh MYO3A (11730013_a_at) / RFU EBF3 (11725865_a_at) / Fold change /veh EBF3 (11725865_a_at) / RFU CAMK2N1 (11719241_x_at) / Fold change /veh CAMK2N1 (11719241_x_at) / RFU C5orf56 (11738088_a_at) / Fold change /veh C5orf56 (11738088_a_at) / RFU OLFML3 (11715873_a_at) / Fold change /veh OLFML3 (11715873_a_at) / RFU LOC100653217 /// NTM (11731650_a_at) / Fold change /veh LOC100653217 /// NTM (11731650_a_at) / RFU MAPK11 (11762145_a_at) / Fold change /veh MAPK11 (11762145_a_at) / RFU FIZ1 (11724087_x_at) / Fold change /veh FIZ1 (11724087_x_at) / RFU OASL (11726364_x_at) / Fold change /veh OASL (11726364_x_at) / RFU SOX15 (11748057_x_at) / Fold change /veh SOX15 (11748057_x_at) / RFU CD79A (11719716_a_at) / Fold change /veh CD79A (11719716_a_at) / RFU HIST1H1D (11736915_at) / Fold change /veh HIST1H1D (11736915_at) / RFU CASKIN2 (11723855_a_at) / Fold change /veh CASKIN2 (11723855_a_at) / RFU LOC730098 (11760151_x_at) / Fold change /veh LOC730098 (11760151_x_at) / RFU OR4N2 (11742367_at) / Fold change /veh OR4N2 (11742367_at) / RFU PRRT2 (11749266_a_at) / Fold change /veh PRRT2 (11749266_a_at) / RFU SNX32 (11753110_a_at) / Fold change /veh SNX32 (11753110_a_at) / RFU CDHR5 (11726645_a_at) / Fold change /veh CDHR5 (11726645_a_at) / RFU RCAN1 (11760418_a_at) / Fold change /veh RCAN1 (11760418_a_at) / RFU FAM167A (11723789_a_at) / Fold change /veh FAM167A (11723789_a_at) / RFU FAM26E (11764081_at) / Fold change /veh FAM26E (11764081_at) / RFU ISYNA1 (11749810_s_at) / Fold change /veh ISYNA1 (11749810_s_at) / RFU ACY1 (11761880_at) / Fold change /veh ACY1 (11761880_at) / RFU 11764098_at / Fold change /veh 11764098_at / RFU SAMD14 (11745864_x_at) / Fold change /veh SAMD14 (11745864_x_at) / RFU NPB (11741838_a_at) / Fold change /veh NPB (11741838_a_at) / RFU TMPRSS6 (11731388_a_at) / Fold change /veh TMPRSS6 (11731388_a_at) / RFU KRTAP10-2 (11738614_at) / Fold change /veh KRTAP10-2 (11738614_at) / RFU ARHGAP8 /// PRR5-ARHGAP8 (11727945_x_at) / Fold change /veh ARHGAP8 /// PRR5-ARHGAP8 (11727945_x_at) / RFU KRTAP5-7 /// NADSYN1 (11734609_at) / Fold change /veh KRTAP5-7 /// NADSYN1 (11734609_at) / RFU RASL12 (11751679_a_at) / Fold change /veh RASL12 (11751679_a_at) / RFU CDKN2B (11736163_a_at) / Fold change /veh CDKN2B (11736163_a_at) / RFU PRF1 (11729649_at) / Fold change /veh PRF1 (11729649_at) / RFU, ZNF638 /// ZNF638-IT1 / Fold change vs veh, ZNF638 /// ZNF638-IT1 / RFU, PANK3 / Fold change vs veh, PANK3 / RFU, SH3YL1 / Fold change vs veh, SH3YL1 / RFU, ZEB2 / Fold change vs veh, ZEB2 / RFU, NRIP1 / Fold change vs veh, NRIP1 / RFU, PTTG1IP / Fold change vs veh, PTTG1IP / RFU, CAPN2 / Fold change vs veh, CAPN2 / RFU, MED14 / Fold change vs veh, MED14 / RFU, SNORA58 / Fold change vs veh, SNORA58 / RFU, C1orf63 / Fold change vs veh, C1orf63 / RFU, LRRFIP1 / Fold change vs veh, LRRFIP1 / RFU, NDUFAF7 / Fold change vs veh, NDUFAF7 / RFU, SLC12A2 / Fold change vs veh, SLC12A2 / RFU, IBTK / Fold change vs veh, IBTK / RFU, ESF1 / Fold change vs veh, ESF1 / Fold change vs veh, TMEM50B / RFU, TAOK1 / Fold change vs veh, TAOK1 / RFU, ACBD3 / Fold change vs veh, ACBD3 / RFU, TMA16 / Fold change vs veh, TMA16 / RFU, RWDD3 / Fold change vs veh, RWDD3 / RFU, BCAT1 / Fold change vs veh, BCAT1 / RFU, EDEM3 / Fold change vs veh, EDEM3 / RFU, TMEM33 / Fold change vs veh, TMEM33 / RFU, WDR75 / Fold change vs veh, WDR75 / RFU, AHCTF1 / Fold change vs veh, AHCTF1 / RFU, TFRC / Fold change vs veh, TFRC / RFU, ZDHHC17 / Fold change vs veh, ZDHHC17 / RFU, NOM1 / Fold change vs veh, NOM1 / RFU, ARL8B / Fold change vs veh, ARL8B / RFU, ZBTB11 / Fold change vs veh, ZBTB11 / RFU, TAMM41 / Fold change vs veh, TAMM41 / RFU, KIAA1704 /// LOC100996395 / Fold change vs veh, KIAA1704 /// LOC100996395 / RFU, ING1 / Fold change vs veh, ING1 / RFU, TRMT61B / Fold change vs veh, TRMT61B / RFU, FUBP3 / Fold change vs veh, FUBP3 / RFU, TP53 / Fold change vs veh, TP53 / RFU, TNKS2 / Fold change vs veh, TNKS2 / RFU, ZFP14 / Fold change vs veh, ZFP14 / RFU, ACTR2 / Fold change vs veh, ACTR2 / RFU, PPP3R1 / Fold change vs veh, PPP3R1 / RFU, PIK3R1 / Fold change vs veh, PIK3R1 / RFU, HNRNPA1 / Fold change vs veh, HNRNPA1 / RFU, RNF170 / Fold change vs veh, RNF170 / RFU, ZNF28 / Fold change vs veh, ZNF28 / RFU, RNGTT / Fold change vs veh, RNGTT / RFU, OGT / Fold change vs veh, OGT / RFU, BRD1 / Fold change vs veh, BRD1 / RFU, MARS / Fold change vs veh, MARS / RFU, ZNF655 / Fold change vs veh, ZNF655 / RFU, FAHD1 / Fold change vs veh, FAHD1 / RFU, BDP1 / Fold change vs veh, BDP1 / RFU, LRRCC1 / Fold change vs veh, LRRCC1 / RFU, ARID1A / Fold change vs veh, ARID1A / RFU, ZNF146 / Fold change vs veh, ZNF146 / RFU, ZNF330 / Fold change vs veh, ZNF330 / RFU, GPN3 / Fold change vs veh, GPN3 / RFU, C9orf123 / Fold change vs veh, C9orf123 / RFU, N4BP2L2 / Fold change vs veh, N4BP2L2 / RFU, ARFIP1 / Fold change vs veh, ARFIP1 / RFU, FAM179B / Fold change vs veh, FAM179B / RFU, BCL10 / Fold change vs veh, BCL10 / RFU, UHRF1BP1L / Fold change vs veh, UHRF1BP1L / RFU, BET1 / Fold change vs veh, BET1 / RFU, CNOT2 / Fold change vs veh, CNOT2 / RFU, ZNF268 / Fold change vs veh, ZNF268 / Fold change vs veh, ZNF507 / RFU, DGCR2 / Fold change vs veh, DGCR2 / RFU, WDSUB1 / Fold change vs veh, WDSUB1 / Fold change vs veh, HSP90B1 /// MIR3652 / RFU, ADSS / Fold change vs veh, ADSS / RFU, GK / Fold change vs veh, GK / RFU, ZNF148 / Fold change vs veh, ZNF148 / RFU, TAF9 / Fold change vs veh, TAF9 / RFU, SLC1A5 / Fold change vs veh, SLC1A5 / RFU, SLMO2 / Fold change vs veh, SLMO2 / RFU, ABCC4 / Fold change vs veh, ABCC4 / RFU, LOC101060439 /// RAP1B / Fold change vs veh, LOC101060439 /// RAP1B / RFU, RFX7 / Fold change vs veh, RFX7 / RFU, GTPBP10 / Fold change vs veh, GTPBP10 / RFU, CNEP1R1 / Fold change vs veh, CNEP1R1 / RFU, BIVM-ERCC5 /// ERCC5 / Fold change vs veh, BIVM-ERCC5 /// ERCC5 / RFU, ILF3 / Fold change vs veh, ILF3 / RFU 11762660_at / Fold change /veh 11762660_at / RFU VCAN (11757783_s_at) / Fold change /veh VCAN (11757783_s_at) / RFU DDX43 (11728927_at) / Fold change /veh DDX43 (11728927_at) / RFU KRT8 (11758188_x_at) / Fold change /veh KRT8 (11758188_x_at) / RFU NKD1 (11759106_at) / Fold change /veh NKD1 (11759106_at) / RFU SRD5A1 (11742802_a_at) / Fold change /veh SRD5A1 (11742802_a_at) / RFU TPSAB1 /// TPSB2 (11721975_s_at) / Fold change /veh TPSAB1 /// TPSB2 (11721975_s_at) / RFU GSTM3 (11746129_a_at) / Fold change /veh GSTM3 (11746129_a_at) / RFU IL23R (11737362_x_at) / Fold change /veh IL23R (11737362_x_at) / RFU TMEM51 (11727254_a_at) / Fold change /veh TMEM51 (11727254_a_at) / RFU PIWIL2 (11732686_x_at) / Fold change /veh PIWIL2 (11732686_x_at) / RFU ORM1 (11744905_x_at) / Fold change /veh ORM1 (11744905_x_at) / RFU CCDC152 (11743942_at) / Fold change /veh CCDC152 (11743942_at) / RFU ECM1 (11717891_a_at) / Fold change /veh ECM1 (11717891_a_at) / RFU IL23R (11748794_a_at) / Fold change /veh IL23R (11748794_a_at) / RFU TNFAIP8L3 (11732012_x_at) / Fold change /veh TNFAIP8L3 (11732012_x_at) / RFU MBOAT4 (11741988_at) / Fold change /veh MBOAT4 (11741988_at) / RFU 11764193_at / Fold change /veh 11764193_at / RFU TMEM53 (11763286_at) / Fold change /veh TMEM53 (11763286_at) / RFU MAGEB2 (11727129_at) / Fold change /veh MAGEB2 (11727129_at) / RFU TMEM200A (11744735_a_at) / Fold change /veh TMEM200A (11744735_a_at) / RFU CCDC152 (11751479_a_at) / Fold change /veh CCDC152 (11751479_a_at) / RFU FAM211A (11726209_a_at) / Fold change /veh FAM211A (11726209_a_at) / RFU RGS16 (11746705_a_at) / Fold change /veh RGS16 (11746705_a_at) / RFU VCAN (11755009_s_at) / Fold change /veh VCAN (11755009_s_at) / RFU RHOB (11743442_s_at) / Fold change /veh RHOB (11743442_s_at) / RFU RGS16 (11720943_a_at) / Fold change /veh RGS16 (11720943_a_at) / RFU RGS16 (11720944_at) / Fold change /veh RGS16 (11720944_at) / RFU, VPS4B / Fold change vs veh, VPS4B / RFU, CREB1 / Fold change vs veh, CREB1 / RFU, DNAJC13 / Fold change vs veh, DNAJC13 / RFU, GNAQ / Fold change vs veh, GNAQ / RFU, CDK5R1 / Fold change vs veh, CDK5R1 / RFU, ZRANB3 / Fold change vs veh, ZRANB3 / RFU, CUL4A / Fold change vs veh, CUL4A / RFU, CCNY / Fold change vs veh, CCNY / RFU, UFL1 / Fold change vs veh, UFL1 / RFU, COG3 / Fold change vs veh, COG3 / RFU, DIAPH2 / Fold change vs veh, DIAPH2 / RFU, SKA2 / Fold change vs veh, SKA2 / RFU, AFF3 / Fold change vs veh, AFF3 / RFU, LMF1 / Fold change vs veh, LMF1 / RFU, IPO11 / Fold change vs veh, IPO11 / RFU, DFFB / Fold change vs veh, DFFB / RFU, FOXP1 / Fold change vs veh, FOXP1 / RFU, CARD8 / Fold change vs veh, CARD8 / RFU, STRN3 / Fold change vs veh, STRN3 / RFU, ADK / Fold change vs veh, ADK / RFU, RASSF2 / Fold change vs veh, RASSF2 / RFU, WIPF1 / Fold change vs veh, WIPF1 / RFU, LARP1B / Fold change vs veh, LARP1B / RFU, RASA1 / Fold change vs veh, RASA1 / RFU, RB1 / Fold change vs veh, RB1 / RFU, PPFIA1 / Fold change vs veh, PPFIA1 / RFU, MAT2A / Fold change vs veh, MAT2A / RFU, CCT5 / Fold change vs veh, CCT5 / RFU, WDR92 / Fold change vs veh, WDR92 / RFU, CUX1 / Fold change vs veh, CUX1 / RFU, TTC7A / Fold change vs veh, TTC7A / RFU, TMEM135 / Fold change vs veh, TMEM135 / RFU, DEPTOR / Fold change vs veh, DEPTOR / RFU, CPM / Fold change vs veh, CPM / RFU, DNAJB6 / Fold change vs veh, DNAJB6 / RFU, CACNA2D3 / Fold change vs veh, CACNA2D3 / RFU, DTX4 / Fold change vs veh, DTX4 / RFU, TFCP2 / Fold change vs veh, TFCP2 / RFU, GMCL1 /// GMCL1P1 / Fold change vs veh, GMCL1 /// GMCL1P1 / RFU, AEBP2 / Fold change vs veh, AEBP2 / RFU, SNHG1 /// SNORD22 /// SNORD25 /// SNORD26 /// SNORD27 /// SNORD28 /// SNORD29 /// SNORD31 / Fold change vs veh, SNHG1 /// SNORD22 /// SNORD25 /// SNORD26 /// SNORD27 /// SNORD28 /// SNORD29 /// SNORD31 / Fold change (Aza/veh), C12orf56 (ProbeSet 11735607_a_at) / Fold change (ACY-1035/veh), C12orf56 (ProbeSet 11735607_a_at) / Fold change (Aza/veh), FGFR1OP (ProbeSet 11751329_s_at) / Fold change (ACY-1035/veh), FGFR1OP (ProbeSet 11751329_s_at) / Fold change (Aza/veh), VPS36 (ProbeSet 11739960_a_at) / Fold change (ACY-1035/veh), VPS36 (ProbeSet 11739960_a_at) / RFU SYPL1 (11715823_x_at) / Fold change /veh SYPL1 (11715823_x_at) / RFU IGFBP7 (11715501_s_at) / Fold change /veh IGFBP7 (11715501_s_at) / RFU REEP3 (11722064_at) / Fold change /veh REEP3 (11722064_at) / RFU IGLL1 (11728026_x_at) / Fold change /veh IGLL1 (11728026_x_at): dose or concentration left out as unconfirmed. Particulars: ProbeSet 11739263_x_at; LIST D.

Each structure is given as a SMILES string.

For `Nc1ccc(-c2cccs2)cc1NC(=O)c1ccc2c(c1)cc(C1CC1)n2CCN1CCOCC1` [ACY-1035], the “Fold change vs veh, VPS4B” value amounted to 0.95.
